Consider 19 molecules from PubChem BioAssay (NCI).

Among the test systems are DLD-1 colon; XF 498 CNS; LXFL 529 NSCLC; KM20L2 colon; DMS 273 small cell lung; HOP-18 NSCLC; DMS 114 small cell lung; M19-MEL melanoma; RXF-631 renal.
Experiment in all cases: growth of human tumour cells (NCI), 48 h

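Dose response: 5 concentrations. Exposure: 48 h. Format: 96-well plates. Endpoint: linear interpolation; highest concentration if not reached. TGI is the concentration that stops growth completely.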

Regarding `COc1ccc(/C(Cl)=C(/c2ccc(O)cc2)c2ccc(OCCN(C)C)cc2)cc1`, the TGI with DLD-1 colon was 31 µM; with XF 498 CNS, 10.3 µM; in the assay with LXFL 529 NSCLC, 22.6 µM; in the assay with KM20L2 colon, 11.7 µM; with DMS 273 small cell lung it was 23.6 µM; with HOP-18 NSCLC, 25 µM. Further, the values for the TGI with DMS 114 small cell lung, with M19-MEL melanoma and in the assay on RXF-631 renal were 19.3 µM, 18.9 µM and 36.7 µM, respectively.

As to `Cn1c2c(c3ccccc31)CCN(CCN1CCN(c3ccccc3)CC1)C2=O`, the TGI in the assay with DLD-1 colon was over 100 µM; in the assay on XF 498 CNS, 61.3 µM; with LXFL 529 NSCLC, over 100 µM; in the assay with KM20L2 colon, over 100 µM; in the assay with DMS 273 small cell lung it was over 100 µM; in the assay with HOP-18 NSCLC, over 100 µM. The TGI in the assay with DMS 114 small cell lung and in the assay on RXF-631 renal was over 100 µM each time.

With `CC1OC(n2ccc(=O)[nH]c2=O)C=C(OC(=O)c2ccccc2)C1=O` (stereo not drawn), the TGI in the assay with DLD-1 colon, in the assay on XF 498 CNS, with KM20L2 colon, in the assay with DMS 273 small cell lung, with HOP-18 NSCLC and in the assay on M19-MEL melanoma was over 100 µM each time.

In the case of `N#CCCN(c1ccc(/C=C2\N=C(Cc3ccccc3)OC2=O)cc1)S(=O)(=O)c1ccccc1`, the TGI in the assay with DLD-1 colon, in the assay on XF 498 CNS, with LXFL 529 NSCLC, with KM20L2 colon, in the assay with DMS 273 small cell lung and in the assay on DMS 114 small cell lung was over 100 µM in each case.

As for `COc1ccc(NC(=O)CC(=O)N2N=C(N(CCC#N)c3ccccc3Cl)CC2c2ccccc2)cc1` (stereo not drawn), the TGI in the assay on DLD-1 colon, with XF 498 CNS, in the assay with LXFL 529 NSCLC, in the assay with KM20L2 colon, in the assay on DMS 273 small cell lung and in the assay with HOP-18 NSCLC was over 100 µM in each case. Also, the TGI with DMS 114 small cell lung, with M19-MEL melanoma and in the assay on RXF-631 renal was over 100 µM in each case.

As to `CCCOC(=O)C1CCC(=O)N1C(=O)C(C)Cl` (stereo not drawn), the TGI in the assay on DLD-1 colon, with XF 498 CNS, in the assay with LXFL 529 NSCLC, in the assay on KM20L2 colon, in the assay with DMS 273 small cell lung and in the assay with HOP-18 NSCLC was over 100 µM throughout. Moreover, the TGI in the assay with DMS 114 small cell lung and with M19-MEL melanoma was over 100 µM in each case.

Take `Nc1nc(NCCO)c(N=O)c(=O)[nH]1`: the TGI in the assay with DLD-1 colon, in the assay with XF 498 CNS, in the assay on LXFL 529 NSCLC, with KM20L2 colon, in the assay on DMS 273 small cell lung and with HOP-18 NSCLC was over 100 µM throughout. Also, the TGI in the assay on DMS 114 small cell lung and in the assay with M19-MEL melanoma was over 100 µM each time.

For `CCCCCCCc1cc(OC(=O)c2c(C)cc(OC)cc2O)cc(O)c1C(=O)O`, the TGI was found to be 34.7 µM in the assay on DLD-1 colon; 34 µM in the assay on LXFL 529 NSCLC; 40.3 µM in the assay on KM20L2 colon; 87.9 µM with DMS 273 small cell lung; 50.7 µM in the assay with M19-MEL melanoma; 63.9 µM in the assay on RXF-631 renal.

Regarding `Nc1ccc2nc(NCc3ccc(F)cc3)cnc2c1`, the TGI in the assay with XF 498 CNS, in the assay with LXFL 529 NSCLC, with KM20L2 colon, in the assay with DMS 273 small cell lung and in the assay with DMS 114 small cell lung was over 100 µM throughout.

Take `O=C1[C@@H]2C(c3ccc(Cl)cc3Cl)=NO[C@@H]2C(=O)N1c1ccc(Cc2ccc(N3C(=O)[C@H]4C(c5ccc(Cl)cc5Cl)=NO[C@H]4C3=O)cc2)cc1`: the TGI in the assay with DLD-1 colon is over 100 µM; in the assay on XF 498 CNS, over 100 µM; in the assay on LXFL 529 NSCLC it was 52.2 µM; with KM20L2 colon, over 100 µM; in the assay with DMS 273 small cell lung it was over 100 µM; with HOP-18 NSCLC, over 100 µM. Also, the TGI in the assay on DMS 114 small cell lung and with M19-MEL melanoma was over 100 µM in each case.

On to `N#CC(C(=O)/C(=N/NC(=O)c1ccccc1O)C(C#N)c1ccccc1)c1ccccc1` (stereo not drawn), for which the TGI with DLD-1 colon, in the assay with XF 498 CNS, in the assay with LXFL 529 NSCLC, in the assay on KM20L2 colon, in the assay on DMS 273 small cell lung and in the assay with HOP-18 NSCLC was over 100 µM each time. In addition, the TGI in the assay with DMS 114 small cell lung, in the assay on M19-MEL melanoma and in the assay on RXF-631 renal was over 100 µM each time.

In the case of `Cc1ccc(N=NC2S/C(=C(\C#N)c3nc4ccccc4[nH]3)N(c3ccccc3)C2=O)cc1` (stereo not drawn), the TGI with DLD-1 colon, in the assay on XF 498 CNS, in the assay on LXFL 529 NSCLC, in the assay with KM20L2 colon, with DMS 273 small cell lung and with DMS 114 small cell lung was over 100 µM in each case. Moreover, the TGI in the assay on M19-MEL melanoma is over 100 µM.

On to `NC(=O)c1cccc(C2OC(COP(=O)(O)O)C(O)C2O)c1` (stereo not drawn), for which the TGI in the assay on DLD-1 colon, in the assay on XF 498 CNS, in the assay with LXFL 529 NSCLC, in the assay with KM20L2 colon, with DMS 273 small cell lung and in the assay with M19-MEL melanoma was over 50 µM each time.

For `CCN(CC)c1ccc(/C=C2/C[N+](C)(C)C/C(=C/c3ccc(N(CC)CC)cc3)C2=O)cc1`, the TGI in the assay on DLD-1 colon is over 100 µM; in the assay with XF 498 CNS, 6.59 µM; in the assay with LXFL 529 NSCLC, 2.81 µM; in the assay on KM20L2 colon, 12.9 µM; in the assay with HOP-18 NSCLC it was 25 µM; with DMS 114 small cell lung, 3.38 µM. In addition, the values for the TGI with M19-MEL melanoma and with RXF-631 renal were 2.84 µM and over 100 µM, respectively.

Regarding `C#CCNC(=O)NCCCC(NC(C)=O)C(=O)NCc1ccccc1` (stereo not drawn), the TGI in the assay with DLD-1 colon, in the assay with LXFL 529 NSCLC, in the assay on KM20L2 colon, in the assay on HOP-18 NSCLC, in the assay with DMS 114 small cell lung and with M19-MEL melanoma was over 100 µM in each case. Also, the TGI with RXF-631 renal is over 100 µM.

For `COc1ccccc1/C=C(\C#N)C(=O)c1ccccc1`, the TGI in the assay on XF 498 CNS, in the assay on KM20L2 colon, in the assay with DMS 273 small cell lung, in the assay with DMS 114 small cell lung and with M19-MEL melanoma was over 100 µM throughout.

For `CC(=O)O[C@]12CCCCC1C1(O)C(O)CCCCC12` (stereo partly drawn), the TGI with LXFL 529 NSCLC, in the assay on KM20L2 colon, in the assay with DMS 273 small cell lung, in the assay with HOP-18 NSCLC, with DMS 114 small cell lung and in the assay on M19-MEL melanoma was over 100 µM in each case.

As to `NC(=O)C#CC#CC#CCO`, the TGI with LXFL 529 NSCLC amounted to 2.35 µM; in the assay on KM20L2 colon it was 27.3 µM; in the assay with DMS 273 small cell lung, 4.1 µM; in the assay on HOP-18 NSCLC, 3.28 µM; with DMS 114 small cell lung it was 3.6 µM; in the assay with M19-MEL melanoma, 3.26 µM.

As for `CN(C)CCC(O)(c1ccccc1)C(O)(CCN(C)C)c1ccccc1` (stereo not drawn), the TGI in the assay on DLD-1 colon, in the assay with XF 498 CNS, in the assay with LXFL 529 NSCLC, with KM20L2 colon, in the assay with DMS 114 small cell lung and in the assay with M19-MEL melanoma was over 100 µM each time.
